Tests used:
[1] = system: CC49-TCO pretargeted LS174T tumor xenografts; assay: Pretargeted PET imaging with six 18F-labeled Tz-derivatives (Example 140); format: in vivo, BALB/c nude mice; settings: PET 1 h p.i., n=3-4 per group
Description: Mice (n=3-4 per group) were injected i.v. with either CC49-TCO or 0.9% saline (control experiments). After 72 h, ^18F-labeled Tz (5-10 MBq) were administered and the mice were PET/CT-scanned 1 h p.i. A 3D region of interest (ROI) was created on the entire tumor volume, as well as heart and muscle tissue, and the uptake was quantified as percentage of the injected dose per gram (mean % ID/g), tumor-to-blood (T/B) and tumor-to-muscle (T/M) ratios (FIG. 18A-D). FIG. 18 (A) is a schematic illustration of the pretargeting experiment and the research question: Is there a correlation between the blocking effect and the PET imaging contras. (B) Image-derived mean uptake values are presented as percentage of the injected dose per gram (% ID/g) in tumor. (C) Tumor-to-muscle (T/M) ratios (n=4 mice, except for [^18F]3, n=3). Data is represented as mean±S.D. (*p<0.05 and *** p<0.001). For all groups n=4 mice (except [^18F]3a where n=3) (D) Correlation between the blocking effect of the unlabeled Tz-derivatives 1a, 3a, 19a, 26a, 44a, and 45a and the T/M-ratios for the corresponding ^18F-labeled compounds observed by in vivo pretargeted PET imaging. A strong correlation was found (linear regression: R2=0.78, p=0.019, n=6). Data is represented as mean±S.D. The asterisk indicates significant difference (* p<0.05 and *** p<0.001) when compared to control. (E) Representative images of PET scans 1 h p.i. of the radiolabeled Tz ([^18F]1a, [^18F]3a, [^18F]19a, [^18F]26a, [^18F]44a and [^18F]45a) in pretargeted PET imaging studies (T indicates the position of the tumor).
This difference was also observed for the three ^18F-labeled Tz-derivatives showing specific tumor accumulation ([^18F]3a, [^18F]19a and [^18F]45a), but not for the non-accumulating probes [^18F]1a and [^18F]26a (FIG. 18B). Binding to residual mAb in the blood pool is a frequently reported challenge in pretargeted imaging approaches, and has been addressed by the development of clearing agents.

[2] = system: CC49-TCO pretargeted LS174T colon carcinoma xenografts; assay: Pretargeted blocking assay with [111In]Q (Example 140); format: in vivo, BALB/c mice; settings: as listed in Table 6, value of the unlabeled Tz
Description: All animal studies were approved by the Danish Animal Welfare Council, ministry of Justice. Five weeks old female nude BALB/c mice (Charles River, Sulzfeld, Germany) were allowed to acclimatize for one week with access to water and chow ad libitum. Human colon cancer cell line (LS174T; obtained from ATCC) was cultured in minimum essential medium (MEM) supplemented with 10% fetal bovine serum, 1% L-Glutamine, 1% Sodium pyruvate, 1% non-essential amino acids, and 1% penicillin-streptomycin at 37° C. and 5% CO2. Cells were harvested by trypsination at a confluence of 70-90% and subcutaneous tumors were established in the left flank of the 6 weeks old animals by inoculation of ˜5×10^6 LS174T cells resuspended in sterile PBS (100 μL) and allowed to grow for 7-10 days. Tumors were measured using a caliper and the volume calculated using the formula volume=½(length×width^2).
The assay was inspired by receptor blocking experiments and based on the pretargeted imaging approach reported by Rossin et al. An ^111In-labeled Tz [^111In]Q was used in pair with TCO-modified CC49, a non-internalizing mAb that targets the tumor-associated glycoprotein 72 (TAG72), as a benchmark model for the in vivo ligation.
The TCO-modification of CC49 was carried out according to Rossin et al. To study the in vivo ligation performance of Tz-derivatives 1a-45a, BALB/c mice bearing LS174T colon carcinoma xenografts were injected intravenously (i.v.) with CC49-TCO 72 h prior to i.v. injection of the unlabeled Tz, followed by administration of [^111In]Q 1 h later. The animals were euthanized after 22 h and an ex vivo biodistribution was carried out to quantify the tumor uptake of [111 In]Q (FIG. 15). The efficiency of the in vivo ligation of the unlabeled Tz can thus be correlated to a reduced uptake of [111 In]Q (FIG. 15). As a control, blocking was performed using the non-radioactive precursor of [^111In]Q, which blocked ≥99% of the [^111In]Q tumor uptake. A group of CC49-TCO pretreated mice were injected exclusively with [^111In]Q (without blocking) and the determined uptake was used as reference value (100%) to normalize the observed changes in tumor uptake in blocking experiments.
All of these probes include H-phenyl-, pyrimidyl-phenyl-, or bis(pyridyl)-Tz-scaffolds with second-order rate constants for the reaction with TCO of >70 M 1 s 1 (1,4-dioxane, 25° C.) or of >39,000 M 1 s 1 (DPBS, 37° C.) (cf. Table 5). Next, potential correlations between the blocking effect, the c log D7.4 and the TPSA, as well as IEDDA reactivity were investigated. […] However, a distinct relationship between c log D7.4 values and the blocking effect was evidently observed when comparing Tz-derivatives with similar IEDDA reactivity (FIG. 16C, 16D). For all Tz-scaffolds a Pearson's correlation coefficient >0.78 was found. […] The blocking effect of non-radiolabeled Tz was determined as the change in tumor uptake of [111 In]Q 22 h p.i. Each Tz was administered 1 h prior to [111 In]Q and the uptake normalized to a group of animals were no blocking was performed (control). Data represent mean from n=3 mice/group. Correlation of blocking effect and c log D7.4 for Tz-derivatives with similar IEDDA reactivity (as shown in FIGS. 16C and D) where data was fitted to exponential growth equation Y=Y0 ekx (dotted line). The statistical analysis of the correlation between tumor uptake and c log D7.4 for the different groups of Tz-derivatives (shown in Table 7) was obtained by Pearson's correlation coefficient (r) which describes the goodness of fit between the blocking effect and c log D7.4. Notes: a Reaction of representative Tz with unsubstituted TCO; “Reaction of representative Tz with TCO-PEG4;” Measured for Tz-scaffold A only; n.d.=not determined.

[3] = In vivo stability of 18F-labeled Tz-derivatives, plasma radio-TLC; settings: naïve mice, n=4
Excerpt: In order to verify that the results from the blocking study can be used to predict the outcome for in vivo PET imaging, 18 Tz-derivatives from the first library were selected. The selection was based on criteria such as, the possibility for ^18F-labeling, structural diversity, lipophilicities and distinct IEDDA reactivities. For this purpose, we decided to use an indirect radiolabeling approach, enabling the combination of different building blocks to rapidly access a series of ^18F-labeled Tz-derivatives. The Cu-catalyzed azide-alkyne [3+2] cycloaddition (CuAAC) appeared to be suitable in this respect, as it allows for fast and efficient radiolabeling under mild reaction conditions. Six precursor Tz-alkynes (I-VI) were prepared and reacted with three ^18F-labeled azides ([^18F]Az1-Az3) to obtain 18 different [^18F]Tz-probes (FIG. 17). Notes to Table 6 showing the results obtained: ^aRCYs were decay-corrected to the starting amount of radioactivity for the respective azide or *RCY was determined starting from ^18F—. ^bMolar activities (Am) differ due to the use of different cyclotrons. ^cRCP was determined by radio-HPLC. ^dIn vivo stability of [^18F]Tz was assessed by determining the fraction (%) of radioactivity corresponding to intact compound after 30 min (n=4) from radio-TLC analysis. n.d.=not determined.
Next, we investigated whether there is a relationship between the in vivo stability of Tz-derivatives and their blocking ability. Fifteen ^18F-labeled tetrazines were studied in naïve mice. Blood was collected after 30 min, and plasma samples were analyzed by radio-TLC for stability assessment (Table 6). […] Consequently, six [^18F]Tz ([^18F]1a, [^18F]3a, [^18F]19a, [^18F]26a, [^18F]44a, and [^18F]45a) were selected for further in vivo studies solely based on the IEDDA-reactivity (second-order rate constants between 72 and 230 M^−1s^−1) and lipophilicity (c log D7.4 between −1.53 and 2.10). These radiolabeled Tz-probes were used to investigate if the results from the blocking assay can be translated to pretargeted PET imaging at tracer doses.

[4] = Second order rate constants from stopped-flow measurements with TCO at 25° C. in ACN (Table 1); format: physicochemical; settings: second order rate constants estimated from stopped-flow measurements of the alkyne-Tz building block with TCO at 25° C. in ACN
Description: In Table 1, the following letters in brackets defines the following: [a] Radiochemical conversion (RCC) and Radiochemical purity (RCP) were determined by radio-HPLC (n=3); [b] Radiochemical yield (RCY) was decay corrected to the starting amount of radioactivity received from the cyclotron and the isolated product without formulation step (n=3); [c] Second order rate constants estimated from stopped-flow measurements of the alkyne-Tz building block with TCO at 25° C. in CAN; [d] No product formed or could not be isolated.
Reaction kinetics of the Tz-derivatives were determined by pseudo-first order measurements in dioxane at 25.0±0.1° C. or PBS at 27.0±0.1° ° C. in a SX20 stopped flow photometer (Applied Photophysics). The pseudo first order rate constant was determined by linearization of the decay curve followed by linear fitting. The second order rate constant was calculated from the pseudo-first order rate constant.

| Structure (SMILES) | Tumor accumulation in mice pretreated with CC49-TCO compared to control animals [1] | Blocking effect (%) (of unlabeled Tz) [2] | In vivo stability (% intact [^18F]Tz after 30 min) [3] | k2 [4] |
| --- | --- | --- | --- | --- |
| [18F]CCn1cc(COc2ccc(-c3nncnn3)cc2)nn1 [[^18F]1a] | no significant difference in tumor uptake | 9% | 90% | – |
| O[C@@H]1[C@@H](O)[C@H](n2cc(COc3ccc(-c4nncnn4)cc3)nn2)O[C@H](C[18F])[C@H]1O [[^18F]3a] | significantly increased tumor accumulation | 81% | 76% | – |
| Cc1nnc(-c2ccc(OCc3cn(CC[18F])nn3)cc2)nn1 [[^18F]5a] | – | 10% | 26% | – |
| Cc1nnc(-c2ccc(OCc3cn([C@@H]4O[C@H](C[18F])[C@@H](O)[C@H](O)[C@H]4O)nn3)cc2)nn1 [[^18F]7a] | – | 3% | 60% | – |
| [18F]CCn1cc(COc2ccc(-c3nnc(-c4ccccn4)nn3)cc2)nn1 [[^18F]12a] | – | 0% | 10% | – |
| O[C@@H]1[C@@H](O)[C@H](n2cc(COc3ccc(-c4nnc(-c5ccccn5)nn4)cc3)nn2)O[C@H](C[18F])[C@H]1O [[^18F]14a] | – | 24% | 43% | – |
| [18F]CCn1cc(-c2ccc(-c3nncnn3)cc2)nn1 [[^18F]17a] | – | 0% | 32% | – |
| O[C@@H]1[C@@H](O)[C@H](n2cc(-c3ccc(-c4nncnn4)cc3)nn2)O[C@H](C[18F])[C@H]1O [[^18F]19a] | significantly increased tumor accumulation | 76% | 87% | – |
| O=C(Nc1ccc(-c2nnc(-c3ccccn3)nn2)nc1)c1ccc(-c2cn(CC[18F])nn2)cc1 [[^18F]25a] | – | 16% | – | – |
| O=C(Nc1ccc(-c2nnc(-c3ccccn3)nn2)nc1)c1ccc(-c2cn([C@@H]3O[C@H](C[18F])[C@@H](O)[C@H](O)[C@H]3O)nn2)cc1 [[^18F]27a] | – | 51% | – | – |
| O=C(CCc1cn(CC[18F])nn1)Nc1ccc(-c2nnc(-c3ccccn3)nn2)nc1 [[^18F]43a] | – | 67% | 10% | – |
| O=C(CCc1cn([C@@H]2O[C@H](C[18F])[C@@H](O)[C@H](O)[C@H]2O)nn1)Nc1ccc(-c2nnc(-c3ccccn3)nn2)nc1 [[^18F]45a] | significantly increased tumor accumulation | 99% | 42% | – |
| [18F]c1cccc(-c2nncnn2)c1 [[^18F]-9] | – | – | – | 222 M⁻¹ s⁻¹ |
| [18F]c1ccc(-c2nnc(-c3ccccc3)nn2)cc1 [[^18F]E] | – | – | – | 18 M⁻¹ s⁻¹ |
| [18F]c1cccc(-c2nnc(-c3ccccc3)nn2)c1 [[^18F]R] | – | – | – | 30 M⁻¹ s⁻¹ |
| [18F]c1ccc(-c2nnc(-c3ccccn3)nn2)cc1 [[^18F]T] | – | – | – | 106 M⁻¹ s⁻¹ |
| Cc1nnc(-c2ccc([18F])cc2)nn1 [[^18F]Tz1] | – | – | – | 2.25 M⁻¹ s⁻¹ |
| [18F]c1ccc(-c2nnc(-c3ccccn3)nn2)nc1 [[^18F]U] | – | – | – | 206 M⁻¹ s⁻¹ |
| [18F]c1ccc(-c2nncnn2)cc1 [[^18F]Y] | – | – | – | 159 M⁻¹ s⁻¹ |

Source: patent publication US20240287104A1, “NUCLIDE LABELLED H-TETRAZINES AND USE THEREOF FOR PET AND SPECT PRETARGETED IMAGING AND RADIONUCLIDE THERAPY” (RIGSHOSPITALET, priority 2020, published 2024)
